Patent US20240270762A1, “PENICILLIN-BINDING PROTEIN INHIBITORS” (priority 2021, published 2024)
Converted amounts (≈) assume the structure as drawn.

Columns and labels:
[1] = biological target: T1, PBP3 from Escherichia coli (K-12) (Escherichia coli, UniProt P0AD68); test: Bocillin-FL fluorescence polarization competition binding, E. coli PBP3
T1 construct: made in house
How it was run: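 Purified PBPs pre-incubated with inhibitor (E. coli PBP3 1.5 μM, 30 min; P. aeruginosa PBP3 0.75 μM, A. baumannii PBP1a 1 μM and PBP3 0.2 μM, 15 min), then Bocillin-FL 0.1 μM (0.05 μM for PBP1a) added; FP read up to 60 min. EC50 = concentration halving bound Bocillin-FL.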

A. baumannii PBP1a = biological target: T2, A. baumannii PBP1a (Acinetobacter baumannii, UniProt A0ABX6CK30); test: Bocillin-FL competition binding via gel filtration, A. baumannii PBP1a; conditions: competition binding assay using Bocillin-FL via gel filtration; read-out: A. baumannii PBP1a Potency
T2 sequence (A0ABX6CK30 1-851): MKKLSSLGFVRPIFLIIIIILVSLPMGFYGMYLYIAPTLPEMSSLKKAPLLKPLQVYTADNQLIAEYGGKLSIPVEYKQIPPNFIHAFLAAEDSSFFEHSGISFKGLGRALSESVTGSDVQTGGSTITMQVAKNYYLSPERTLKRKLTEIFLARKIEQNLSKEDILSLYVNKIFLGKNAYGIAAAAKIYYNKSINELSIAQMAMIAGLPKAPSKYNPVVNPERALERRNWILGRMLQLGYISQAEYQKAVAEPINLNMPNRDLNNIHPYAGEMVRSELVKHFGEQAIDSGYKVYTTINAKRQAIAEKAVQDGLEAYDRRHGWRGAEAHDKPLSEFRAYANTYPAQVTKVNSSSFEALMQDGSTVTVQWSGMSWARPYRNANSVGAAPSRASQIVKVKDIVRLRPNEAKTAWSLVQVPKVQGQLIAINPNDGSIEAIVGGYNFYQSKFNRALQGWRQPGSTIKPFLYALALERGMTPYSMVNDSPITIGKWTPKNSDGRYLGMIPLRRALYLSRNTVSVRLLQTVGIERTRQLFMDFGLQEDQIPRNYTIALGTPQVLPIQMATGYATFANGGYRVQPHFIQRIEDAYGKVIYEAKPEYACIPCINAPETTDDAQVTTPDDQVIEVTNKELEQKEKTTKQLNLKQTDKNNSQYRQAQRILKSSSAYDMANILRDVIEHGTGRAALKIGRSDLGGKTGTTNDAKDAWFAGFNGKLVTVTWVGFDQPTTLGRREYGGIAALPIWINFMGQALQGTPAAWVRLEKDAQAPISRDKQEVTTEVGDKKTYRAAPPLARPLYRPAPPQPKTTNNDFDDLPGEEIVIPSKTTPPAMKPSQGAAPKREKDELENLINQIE
How it was run: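 Enzyme pre-incubated with increasing inhibitor concentrations, then Bocillin-FL added for 15 min further incubation. Bocillin-FL-bound PBP separated by gel filtration and fluorescence read. EC50 from fitting fraction PBP bound vs inhibitor concentration to a Hill-type equation (ymin, ymax, n).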

P. aeruginosa ATCC 27853 = test: microbe, parasite or virus in culture; format: cell-based; conditions: Pseudomonas aeruginosa, ATCC27853, read-out: Minimum inhibitory concentration, P. aeruginosa ATCC 27853
P. aeruginosa CDC-0054 = test: microbe, parasite or virus in culture; format: cell-based; conditions: Pseudomonas aeruginosa, CDC0054, read-out: Minimum inhibitory concentration, P. aeruginosa CDC-0054

T1 sequence (P0AD68 1-577): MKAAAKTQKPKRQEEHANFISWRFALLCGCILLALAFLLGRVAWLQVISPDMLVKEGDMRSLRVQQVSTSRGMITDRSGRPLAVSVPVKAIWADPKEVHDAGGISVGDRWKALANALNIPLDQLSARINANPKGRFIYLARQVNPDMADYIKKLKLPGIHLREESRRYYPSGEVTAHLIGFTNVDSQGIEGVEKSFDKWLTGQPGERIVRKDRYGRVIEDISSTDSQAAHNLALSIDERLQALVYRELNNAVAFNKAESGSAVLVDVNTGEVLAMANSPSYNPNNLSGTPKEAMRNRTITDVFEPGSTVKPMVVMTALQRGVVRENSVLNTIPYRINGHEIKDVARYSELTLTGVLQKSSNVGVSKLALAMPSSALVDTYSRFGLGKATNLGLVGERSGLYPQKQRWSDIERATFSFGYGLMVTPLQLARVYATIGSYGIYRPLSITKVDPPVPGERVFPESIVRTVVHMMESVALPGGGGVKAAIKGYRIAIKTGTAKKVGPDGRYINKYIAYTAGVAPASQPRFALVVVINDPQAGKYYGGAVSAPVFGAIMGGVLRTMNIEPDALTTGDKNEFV

`O=C(NCCCN1CCN(C(=O)NC(C(=O)N[C@H]2Cc3ccc(F)c(C(=O)O)c3OB2O)c2cc(F)c(O)c(O)c2Cl)C(=O)C1=O)c1cc(O)cc(O)c1` (stereo partly drawn) [Example 423, (3R)-3-(2-(2-chloro-5-fluoro-3,4-dihydroxyphenyl)-2-(4-(3-(3,5-dihydroxybenzamido)propyl)-2,3-dioxopiperazine-1-carboxamido)acetamido)-7-fluoro-2-hydroxy-3,4-dihydro-2H-benzo[e][1,2]oxaborinine-8-carboxylic acid] gave an EC50 [1] of under 10 µM, an EC50 (A. baumannii PBP1a) of under 10 µM and an MIC (P. aeruginosa ATCC 27853) of under 1 µg/mL. For the same compound, the MIC (P. aeruginosa CDC-0054) was under 1 µg/mL.
With `O=C(NCCCN1CCN(C(=O)NC(C(=O)N[C@H]2Cc3ccc(F)c(C(=O)O)c3OB2O)c2cc(F)c(O)c(O)c2Cl)C(=O)C1=O)c1ccc(F)c(O)c1` (stereo partly drawn) [Example 409, (3R)-3-(2-(2-chloro-5-fluoro-3,4-dihydroxyphenyl)-2-(4-(3-(4-fluoro-3-hydroxybenzamido)propyl)-2,3-dioxopiperazine-1-carboxamido)acetamido)-7-fluoro-2-hydroxy-3,4-dihydro-2H-benzo[e][1,2]oxaborinine-8-carboxylic acid] the EC50 [1] was under 10 µM, the EC50 (A. baumannii PBP1a) was under 10 µM and the MIC (P. aeruginosa ATCC 27853) was under 1 µg/mL. For the same compound, the MIC (P. aeruginosa CDC-0054) was under 1 µg/mL.
Work on `O=C(NCCCN1CCN(C(=O)NC(C(=O)N[C@H]2Cc3ccc(F)c(C(=O)O)c3OB2O)c2cc(F)c(O)c(O)c2Cl)C(=O)C1=O)c1cc(O)cc(F)c1` (stereo partly drawn) [Example 410, (3R)-3-(2-(2-chloro-5-fluoro-3,4-dihydroxyphenyl)-2-(4-(3-(3-fluoro-5-hydroxybenzamido)propyl)-2,3-dioxopiperazine-1-carboxamido)acetamido)-7-fluoro-2-hydroxy-3,4-dihydro-2H-benzo[e][1,2]oxaborinine-8-carboxylic acid] yielded an EC50 [1] of under 10 µM, an EC50 (A. baumannii PBP1a) of under 10 µM and an MIC (P. aeruginosa ATCC 27853) of under 1 µg/mL. The MIC (P. aeruginosa CDC-0054) was under 1 µg/mL.
`O=C(NCCCN1CCN(C(=O)NC(C(=O)N[C@H]2Cc3ccc(F)c(C(=O)O)c3OB2O)c2cc(F)c(O)c(O)c2Cl)C(=O)C1=O)c1c(F)ccc(O)c1F` (stereo partly drawn) [Example 413, (3R)-3-(2-(2-chloro-5-fluoro-3,4-dihydroxyphenyl)-2-(4-(3-(2,6-difluoro-3-hydroxybenzamido)propyl)-2,3-dioxopiperazine-1-carboxamido)acetamido)-7-fluoro-2-hydroxy-3,4-dihydro-2H-benzo[e][1,2]oxaborinine-8-carboxylic acid] showed an EC50 [1] of under 10 µM, an EC50 (A. baumannii PBP1a) of under 10 µM and an MIC (P. aeruginosa ATCC 27853) of under 1 µg/mL. It also gave an MIC (P. aeruginosa CDC-0054) of under 1 µg/mL.
`O=C(O)c1c(F)ccc2c1OB(O)[C@@H](NC(=O)C(NC(=O)N1CCN(C3CCN(C(=O)c4c(F)ccc(O)c4F)CC3)C(=O)C1=O)c1cc(F)c(O)c(O)c1Cl)C2` (stereo partly drawn) [Example 308, (3R)-3-(2-(2-chloro-5-fluoro-3,4-dihydroxyphenyl)-2-(4-(1-(2,6-difluoro-3-hydroxybenzoyl)piperidin-4-yl)-2,3-dioxopiperazine-1-carboxamido)acetamido)-7-fluoro-2-hydroxy-3,4-dihydro-2H-benzo[e][1,2]oxaborinine-8-carboxylic acid] was tested, and the EC50 [1] was under 10 µM, the EC50 (A. baumannii PBP1a) was 10 to 50 µM and the MIC (P. aeruginosa ATCC 27853) was under 1 µg/mL. It also gave an MIC (P. aeruginosa CDC-0054) of under 1 µg/mL.
`O=C(NCCCN1CCN(C(=O)NC(C(=O)N[C@H]2Cc3ccc(F)c(C(=O)O)c3OB2O)c2cc(F)c(O)c(O)c2Cl)C(=O)C1=O)c1c(F)cc(O)cc1Cl` (stereo partly drawn) [Example 421, (3R)-3-(2-(2-chloro-5-fluoro-3,4-dihydroxyphenyl)-2-(4-(3-(2-chloro-6-fluoro-4-hydroxybenzamido)propyl)-2,3-dioxopiperazine-1-carboxamido)acetamido)-7-fluoro-2-hydroxy-3,4-dihydro-2H-benzo[e][1,2]oxaborinine-8-carboxylic acid] was tested, and the EC50 [1] was under 10 µM, the EC50 (A. baumannii PBP1a) was under 10 µM and the MIC (P. aeruginosa ATCC 27853) was 2 to 4 µg/mL (≈ 2.46 to 4.92 µM). The MIC (P. aeruginosa CDC-0054) was under 1 µg/mL.
Compound `O=C(NCCCN1CCN(C(=O)NC(C(=O)N[C@H]2Cc3ccc(F)c(C(=O)O)c3OB2O)c2cc(F)c(O)c(O)c2Cl)C(=O)C1=O)c1c(F)cncc1Cl` (stereo partly drawn) [Example 403, (3R)-3-(2-(2-chloro-5-fluoro-3,4-dihydroxyphenyl)-2-(4-(3-(3-chloro-5-fluoroisonicotinamido)propyl)-2,3-dioxopiperazine-1-carboxamido)acetamido)-7-fluoro-2-hydroxy-3,4-dihydro-2H-benzo[e][1,2]oxaborinine-8-carboxylic acid] has an EC50 [1] of under 10 µM, an EC50 (A. baumannii PBP1a) of 10 to 50 µM and an MIC (P. aeruginosa ATCC 27853) of 2 to 4 µg/mL (≈ 2.51 to 5.02 µM). The MIC (P. aeruginosa CDC-0054) was under 1 µg/mL.
In the case of `O=C(NCCCN1CCN(C(=O)NC(C(=O)N[C@H]2Cc3ccc(F)c(C(=O)O)c3OB2O)c2cc(F)c(O)c(O)c2Cl)C(=O)C1=O)c1cc(O)c(F)c(O)c1` (stereo partly drawn) [Example 416, (3R)-3-(2-(2-chloro-5-fluoro-3,4-dihydroxyphenyl)-2-(4-(3-(4-fluoro-3,5-dihydroxybenzamido)propyl)-2,3-dioxopiperazine-1-carboxamido)acetamido)-7-fluoro-2-hydroxy-3,4-dihydro-2H-benzo[e][1,2]oxaborinine-8-carboxylic acid], the EC50 [1] is reported as under 10 µM, the EC50 (A. baumannii PBP1a) is reported as under 10 µM and the MIC (P. aeruginosa ATCC 27853) is reported as under 1 µg/mL. For the same compound, the MIC (P. aeruginosa CDC-0054) was under 1 µg/mL.
Work on `O=C(NCCCN1CCN(C(=O)N[C@@H](C(=O)N[C@H]2Cc3ccc(F)c(C(=O)O)c3OB2O)c2cc(F)c(O)c(O)c2Cl)C(=O)C1=O)c1cc(F)c(O)cc1F` (single isomer, unassigned) [Example 473] yielded an EC50 [1] of under 10 µM, an EC50 (A. baumannii PBP1a) of under 10 µM and an MIC (P. aeruginosa ATCC 27853) of 2 to 4 µg/mL (≈ 2.51 to 5.03 µM). It also gave an MIC (P. aeruginosa CDC-0054) of under 1 µg/mL.
With `O=C(NCCCN1CCN(C(=O)NC(C(=O)N[C@H]2Cc3ccc(F)c(C(=O)O)c3OB2O)c2cc(F)c(O)c(O)c2Cl)C(=O)C1=O)c1cc(F)c(F)c(O)c1F` (stereo partly drawn) [Example 404, (3R)-3-(2-(2-chloro-5-fluoro-3,4-dihydroxyphenyl)-2-(2,3-dioxo-4-(3-(2,4,5-trifluoro-3-hydroxybenzamido)propyl)piperazine-1-carboxamido)acetamido)-7-fluoro-2-hydroxy-3,4-dihydro-2H-benzo[e][1,2]oxaborinine-8-carboxylic acid] the EC50 [1] was under 10 µM, the EC50 (A. baumannii PBP1a) was under 10 µM and the MIC (P. aeruginosa ATCC 27853) was 2 to 4 µg/mL (≈ 2.46 to 4.91 µM). For the same compound, the MIC (P. aeruginosa CDC-0054) was under 1 µg/mL.
With `O=C(NCCCN1CCN(C(=O)N[C@@H](C(=O)N[C@H]2Cc3ccc(F)c(C(=O)O)c3OB2O)c2cc(F)c(O)c(O)c2Cl)C(=O)C1=O)c1ccc(O)cc1F` (racemic) [Example 417] the EC50 [1] was under 10 µM, the EC50 (A. baumannii PBP1a) was 10 to 50 µM and the MIC (P. aeruginosa ATCC 27853) was 8 to 16 µg/mL (≈ 10.3 to 20.6 µM). For the same compound, the MIC (P. aeruginosa CDC-0054) was 8 to 16 µg/mL (≈ 10.3 to 20.6 µM).
Work on `O=C(NCCCN1CCN(C(=O)NC(C(=O)N[C@H]2Cc3ccc(F)c(C(=O)O)c3OB2O)c2cc(F)c(O)c(O)c2Cl)C(=O)C1=O)c1ccc(F)c(O)c1F` (stereo partly drawn) [Example 411, (3R)-3-(2-(2-chloro-5-fluoro-3,4-dihydroxyphenyl)-2-(4-(3-(2,4-difluoro-3-hydroxybenzamido)propyl)-2,3-dioxopiperazine-1-carboxamido)acetamido)-7-fluoro-2-hydroxy-3,4-dihydro-2H-benzo[e][1,2]oxaborinine-8-carboxylic acid] yielded an EC50 [1] of under 10 µM, an EC50 (A. baumannii PBP1a) of under 10 µM and an MIC (P. aeruginosa ATCC 27853) of under 1 µg/mL. It also gave an MIC (P. aeruginosa CDC-0054) of under 1 µg/mL.
For `O=C(NCCCN1CCN(C(=O)N[C@@H](C(=O)N[C@H]2Cc3ccc(F)c(C(=O)O)c3OB2O)c2cc(F)c(O)c(O)c2Cl)C(=O)C1=O)c1cc(F)nc(F)c1` (racemic) [Example 401], the EC50 [1] was under 10 µM, the EC50 (A. baumannii PBP1a) was under 10 µM and the MIC (P. aeruginosa ATCC 27853) was 2 to 4 µg/mL (≈ 2.56 to 5.12 µM). The MIC (P. aeruginosa CDC-0054) was under 1 µg/mL.
For `O=C(O)c1c(F)ccc2c1OB(O)[C@@H](NC(=O)C(NC(=O)N1CCN(C3CCN(S(=O)(=O)c4ccc(O)cc4)CC3)C(=O)C1=O)c1cc(F)c(O)c(O)c1Cl)C2` (stereo partly drawn) [Example 429, (3R)-3-(2-(2-chloro-5-fluoro-3,4-dihydroxyphenyl)-2-(4-(1-((4-hydroxyphenyl)sulfonyl)piperidin-4-yl)-2,3-dioxopiperazine-1-carboxamido)acetamido)-7-fluoro-2-hydroxy-3,4-dihydro-2H-benzo[e][1,2]oxaborinine-8-carboxylic acid], the EC50 [1] was under 10 µM, the EC50 (A. baumannii PBP1a) was under 10 µM and the MIC (P. aeruginosa ATCC 27853) was 2 to 4 µg/mL (≈ 2.43 to 4.87 µM). The MIC (P. aeruginosa CDC-0054) was under 1 µg/mL.
